Experimental data published in patent publication US7851641B2, “Compounds useful for treating neurodegenerative disorders” (Satori Pharmaceuticals, Inc., priority 2005, dated 2010).

Experiments:
amyloid-β (1-42) peptide [1] = test: IP-MS quantification of amyloid-β peptides (Wang et al protocol); type: cell-based; settings: in vitro, FIG. 21
Protocol: (§1) Compounds of the present invention were assayed to determine their effect on the total ration of amyloid-β (1-42) peptide in vitro using an assay protocol substantially similar to that described by Wang et al, J. Biol. Chem. 1996, 50:31894-31902, The Profile of Soluble Amyloid β Protein in Cultured Cell Media, the entirety of which is hereby incorporated herein by reference. This assay quantifies amyloid-β protein using immunoprecipitation and mass spectrometry (IP-MS).

amyloid-β (1-42) peptide [2] = test: IP-MS quantification of amyloid-β peptides in 7W cells (APPwt) and 7PA2 cells (APPV717F); type: cell-based; settings: FIG. 22
Protocol: as §1
Compound 6 was also assayed according to the method described in Wang et al, in 7W cells (APPwt) and 7PA2 cells (APPV717F). The APP717 mutations increase the relative amount of amyloid-β (1-42) peptide. In this assay, it was shown that compound 6 reduces amyloid-β (1-42) peptide while increasing amyloid-β (1-39) peptide.

What does the source list for `CC(=O)O[C@@H]([C@H]1C[C@@H](C)C2=C(O1)[C@H](O)[C@@]1(C)[C@@H]3CC[C@H]4C(C)(C)[C@@H](O[C@@H]5OC[C@@H](O)[C@H](O)[C@H]5O)CC[C@@]45C[C@@]35CC[C@]21C)C(C)(C)O` [Compound 6, 24-O-Acetylhydroshengmanol 3-β-D-xylopyranoside (delta-16,17)-enol ether]?
effect on amyloid-β (1-37) peptide (amyloid-β (1-42) peptide [1]): increasing; effect on amyloid-β (1-39) peptide (amyloid-β (1-42) peptide [1]): increasing; effect on amyloid-β (1-42) peptide (amyloid-β (1-42) peptide [1]): reduced; effect on amyloid-β (1-39) peptide (amyloid-β (1-42) peptide [2]): increasing; effect on amyloid-β (1-42) peptide (amyloid-β (1-42) peptide [2]): reduces
